For data set [1], the species on record is Rattus norvegicus. The data set can be described thus: Relative potency with reference to quinidine. It counts as functional.
Data set [2] deals with Rattus norvegicus. As to the kind of experiment: Tested for incidence of arrhythmias in rats after a intravenal administration of 2 mg/kg expressed as no. of positive cases out of no. of tested cases (10). It counts as functional.
The test system of data set [3] is Cavia porcellus. As to the kind of experiment: Amount of ouabain needed for production of ventricular extra-systoles at a dose of 2 mg/kg (iv given 5 min prior) in guinea pig. It counts as functional, Cardiac ventricle.
Data set [4] deals with Cavia porcellus. The data set can be described thus: Amount of ouabain needed for production of ventricular fibrillation at a dose of 2 mg/kg (iv given 5 min prior) in guinea pig. It counts as functional, Cardiac ventricle.
A short description of data set [5]: Acute toxicity determined after intravenal administration in mice. It counts as organism-based. The following applies: mouse, in vivo, iv.
The subject of data set [6] is Rattus norvegicus. As to the kind of experiment: Effective dose against aconitine-induced arrhythmia after intravenal administration in anesthetized rats. It counts as functional.
Data set [7] deals with Rattus norvegicus. The data set can be described thus: Incidence of arrhythmias in rats after a intravenal administration at 4 mg/kg, expressed as no. of positive cases out of no. of tested cases (10). It counts as functional.
Data set [8] deals with Cavia porcellus. As to the kind of experiment: Amount of ouabain needed for production of ventricular arrhythmias that causes death in guinea pig by cardiac arrest at a dose of 2 mg/kg iv given 5 min prior. It counts as functional, Cardiac ventricle.

As for `C=CCc1cc(C)ccc1OCC(=O)NCCCNC(=O)C1=CC(C)(C)NC1(C)C`, in the data set filed under Rattus norvegicus [1], the Relative potency was found to be 4.9. In addition, the “No. of positive cases” value with Rattus norvegicus [2] is listed as 8.

By LD50 is commonly meant the dose at which mortality reaches 50%. Take `Cc1cccc(C)c1NC(=O)CNC(=O)C1=CC(C)(C)NC1(C)C`: the Average dose with Cavia porcellus [3] came out at 0.2142 mg/kg; in the data set with Cavia porcellus [4] it was 0.2842 mg/kg; in the data set with Cavia porcellus [8], 0.3314 mg/kg. This compound had an LD50 in data set [5] of 53 mg/kg. For the same compound, the ED150 in the data set on Rattus norvegicus [6] was 2.4 mg/kg. For the same compound, in the data set filed under Rattus norvegicus [1], the Relative potency came out at 4.9. For the same compound, in the data set with Rattus norvegicus [7], the “No. of positive cases” value is given as 10.

`CC1(C)C=C(C(=O)NCCCNCc2cccc(Oc3ccccc3)c2)C(C)(C)N1`: the LD50 in data set [5] is 11 mg/kg. This compound yielded an ED150 in the data set with Rattus norvegicus [6] of 0.96 mg/kg. In addition, the Relative potency in the data set filed under Rattus norvegicus [1] is on record as 12.4. In the data set on Rattus norvegicus [2], the “No. of positive cases” value is 10.

Consider `Cc1cccc(C)c1NC(=O)C(NC(=O)C1=CC(C)(C)NC1(C)C)c1ccccc1` (configuration not stated), for which the median lethal dose (LD50) in data set [5] worked out at 7.6 mg/kg. In the data set with Rattus norvegicus [6], this compound displayed an ED150 of 0.78 mg/kg. The same compound gave a Relative potency in the data set filed under Rattus norvegicus [1] of 15.3. Further, in the data set on Rattus norvegicus [2], the “No. of positive cases” value stood at 10.

For the compound `C=C[C@H]1CN2CC[C@H]1C[C@@H]2[C@@H](O)c1ccnc2ccc(OC)cc12` [QUINIDINE], the Average dose with Cavia porcellus [3] was 0.1954 mg/kg; in the data set with Cavia porcellus [4] it was 0.2911 mg/kg; with Cavia porcellus [8], 0.3139 mg/kg.

In data set [5], `CC1(C)C=C(C(=O)NCCCNCc2ccccc2OCc2ccccc2)C(C)(C)N1` registered an LD50 of 9 mg/kg. In addition, the ED150 in the data set on Rattus norvegicus [6] amounted to 0.6 mg/kg. The compound further gave a Relative potency in the data set filed under Rattus norvegicus [1] of 19.8. Moreover, the “No. of positive cases” value with Rattus norvegicus [2] is reported as 10.

As to `C=CCc1cc(C)ccc1OCC(=O)NCCNC(=O)C1=CC(C)(C)NC1(C)C`, the median lethal dose (LD50) in data set [5] came to 19 mg/kg. In addition, the “No. of positive cases” value in the data set on Rattus norvegicus [2] stood at 3.

Regarding `C/C=C/c1ccc(OCC(=O)NCCCNC(=O)C2=CC(C)(C)NC2(C)C)c(OC)c1`, the Average dose in the data set on Cavia porcellus [3] is 0.2011 mg/kg; with Cavia porcellus [4], 0.2509 mg/kg; in the data set on Cavia porcellus [8] it was 0.2847 mg/kg. Also, the LD50 in data set [5] was 30 mg/kg. Further, the Relative potency in the data set listed under Rattus norvegicus [1] amounted to 5.4. Moreover, the “No. of positive cases” value with Rattus norvegicus [7] is reported as 7.

In data set [5], `CC1(C)C=C(C(=O)NCCCNCc2ccc(OCc3ccccc3)cc2)C(C)(C)N1` had a median lethal dose (LD50) of 20 mg/kg. The same compound returned an ED150 in the data set on Rattus norvegicus [6] of 1.3 mg/kg. Moreover, the Relative potency in the data set listed under Rattus norvegicus [1] is reported as 9.2. Besides, the “No. of positive cases” value in the data set on Rattus norvegicus [2] is 8.

For the compound `C=CCOc1ccccc1CNCCCNC(=O)C1CC(C)(C)NC1(C)C` (configuration not stated), the 50% lethal dose (LD50) in data set [5] was 13 mg/kg. Besides, the ED150 in the data set with Rattus norvegicus [6] worked out at 2.1 mg/kg. In addition, the Relative potency in the data set filed under Rattus norvegicus [1] came out at 5.7. Besides, the “No. of positive cases” value with Rattus norvegicus [2] is 10.

For the compound `Cc1cccc(C)c1NC(=O)CNC(=O)C1CC(C)(C)NC1(C)C` (configuration not stated), the Average dose with Cavia porcellus [3] came out at 0.1969 mg/kg; in the data set with Cavia porcellus [4] it was 0.2909 mg/kg; with Cavia porcellus [8] it was 0.3199 mg/kg. In data set [5], this compound gave an LD50 of 40 mg/kg. Moreover, the ED150 in the data set on Rattus norvegicus [6] stood at 0.84 mg/kg. Also, the Relative potency in the data set listed under Rattus norvegicus [1] stood at 14.2. Further, in the data set on Rattus norvegicus [7], the “No. of positive cases” value was found to be 10.

Compound `CC1(C)C=C(C(=O)NCCCNCc2cccc(OCc3ccccc3)c2)C(C)(C)N1` registered a 50% lethal dose (LD50) in data set [5] of 7 mg/kg. The ED150 in the data set with Rattus norvegicus [6] is 0.74 mg/kg. For the same compound, in the data set filed under Rattus norvegicus [1], the Relative potency stood at 16.1. The “No. of positive cases” value in the data set with Rattus norvegicus [2] is 10.

As for `CC1(C)C=C(C(=O)NCC(O)CNC(=O)c2cccs2)C(C)(C)N1` (configuration not stated), in data set [5], the LD50 turned out to be 65 mg/kg. The compound also showed an ED150 with Rattus norvegicus [6] of 6.7 mg/kg. In the data set filed under Rattus norvegicus [1], the Relative potency came out at 1.77. For the same compound, the “No. of positive cases” value with Rattus norvegicus [7] was 7.

As to `CC1(C)C=C(C(=O)NCCCNCc2ccc(C(F)(F)F)cc2)C(C)(C)N1`, the median lethal dose (LD50) in data set [5] was determined as 65 mg/kg. The ED150 with Rattus norvegicus [6] came out at 4.8 mg/kg. The Relative potency in the data set listed under Rattus norvegicus [1] is listed as 2.5. The “No. of positive cases” value in the data set on Rattus norvegicus [7] turned out to be 7.

Turning to `Cc1cccc(C)c1NC(=O)C(C)NCCCNC(=O)C1CC(C)(C)NC1(C)C` (configuration not stated), the LD50 in data set [5] was 39 mg/kg. This compound also displayed an ED150 in the data set on Rattus norvegicus [6] of 2.3 mg/kg. Also, the Relative potency in the data set filed under Rattus norvegicus [1] was 5.1. Also, the “No. of positive cases” value in the data set with Rattus norvegicus [7] stood at 10.

In data set [5], `CC1(C)C=C(C(=O)NCCCNCc2ccccc2O)C(C)(C)N1` displayed an LD50 of 28 mg/kg. The compound further gave an ED150 in the data set on Rattus norvegicus [6] of 4.7 mg/kg. In addition, the Relative potency in the data set filed under Rattus norvegicus [1] was 2.5. Moreover, the “No. of positive cases” value in the data set on Rattus norvegicus [7] came out at 7.

In data set [5], `COc1ccc(CNCCCNC(=O)C2=CC(C)(C)NC2(C)C)c(OC)c1` returned a 50% lethal dose (LD50) of 16 mg/kg. This compound also displayed an ED150 with Rattus norvegicus [6] of 1.7 mg/kg. Further, the Relative potency in the data set listed under Rattus norvegicus [1] is listed as 7. In the data set on Rattus norvegicus [7], the “No. of positive cases” value was found to be 9.

In data set [5], `COc1ccccc1CNCCCNC(=O)C1=CC(C)(C)NC1(C)C.Cl` had a 50% lethal dose (LD50) of 7.9 mg/kg. In the data set with Rattus norvegicus [6], this compound gave an ED150 of 1.6 mg/kg. Moreover, the Relative potency in the data set filed under Rattus norvegicus [1] is recorded as 7.4. Also, in the data set with Rattus norvegicus [7], the “No. of positive cases” value was 10.

Consider `C=CCOc1c(CNCCCNC(=O)C2=CC(C)(C)NC2(C)C)cccc1OC`, for which the LD50 in data set [5] amounted to 15 mg/kg. This compound came in with an ED150 with Rattus norvegicus [6] of 1.7 mg/kg. The compound further yielded a Relative potency in the data set listed under Rattus norvegicus [1] of 7. Besides, the “No. of positive cases” value in the data set with Rattus norvegicus [7] was 10.

In the case of `C=CCOc1ccc(CNCCCNC(=O)C2=CC(C)(C)NC2(C)C)cc1`, the 50% lethal dose (LD50) in data set [5] was 28 mg/kg. The compound also gave an ED150 in the data set on Rattus norvegicus [6] of 2.9 mg/kg. This compound also registered a Relative potency in the data set listed under Rattus norvegicus [1] of 4.1. In addition, the “No. of positive cases” value in the data set on Rattus norvegicus [7] is 6.

For `CC1(C)C=C(C(=O)NCCCN2C(=O)c3ccccc3C2=O)C(C)(C)N1`, the Average dose with Cavia porcellus [3] was 0.2369 mg/kg; with Cavia porcellus [4] it was 0.3455 mg/kg; with Cavia porcellus [8], 0.3825 mg/kg. For the same compound, the Relative potency in the data set listed under Rattus norvegicus [1] stood at 4.6. For the same compound, in the data set with Rattus norvegicus [2], the “No. of positive cases” value was found to be 10.

For the compound `COc1cc(CNCCCNC(=O)C2=CC(C)(C)NC2(C)C)ccc1O`, in data set [5], the LD50 is 8.7 mg/kg. In the data set on Rattus norvegicus [6], this compound yielded an ED150 of 0.47 mg/kg. In the data set filed under Rattus norvegicus [1], this compound had a Relative potency of 25.3. In addition, the “No. of positive cases” value with Rattus norvegicus [2] amounted to 10.

For `CC1(C)C=C(C(=O)NCCCNCc2cccc(O)c2)C(C)(C)N1.Cl`, the LD50 in data set [5] was 13 mg/kg. In the data set on Rattus norvegicus [6], the ED150 worked out at 8.5 mg/kg. The compound also showed a Relative potency in the data set listed under Rattus norvegicus [1] of 1.4. For the same compound, in the data set with Rattus norvegicus [7], the “No. of positive cases” value amounted to 4.

In data set [5], `C=CCc1ccc(OC(C)C(=O)NCCNC(=O)C2=CC(C)(C)NC2(C)C)c(OC)c1` (configuration not stated) came in with a median lethal dose (LD50) of 9.3 mg/kg. Further, the ED150 with Rattus norvegicus [6] stood at 2.8 mg/kg. In the data set filed under Rattus norvegicus [1], this compound displayed a Relative potency of 4.3. For the same compound, the “No. of positive cases” value in the data set on Rattus norvegicus [2] is 7.

Turning to `Cc1cccc(C)c1NC(=O)C(C)NC(=O)C1=CC(C)(C)NC1(C)C` (configuration not stated), the Average dose stood at 0.2089 mg/kg in the data set on Cavia porcellus [3], 0.3253 mg/kg in the data set with Cavia porcellus [4] and 0.361 mg/kg in the data set on Cavia porcellus [8]. In data set [5], the median lethal dose (LD50) was 15 mg/kg. Moreover, the ED150 with Rattus norvegicus [6] came to 1.9 mg/kg. The compound also displayed a Relative potency in the data set filed under Rattus norvegicus [1] of 6.3. Also, the “No. of positive cases” value in the data set with Rattus norvegicus [7] was 10.

With `CC1(C)C=C(C(=O)NCC(O)CNCc2cccs2)C(C)(C)N1` (configuration not stated), the LD50 in data set [5] worked out at 49 mg/kg. This compound returned an ED150 in the data set on Rattus norvegicus [6] of 7.6 mg/kg. The Relative potency in the data set filed under Rattus norvegicus [1] is reported as 1.6. The “No. of positive cases” value with Rattus norvegicus [7] came out at 8.

As to `CC1(C)C=C(C(=O)NCCCNCc2ccccc2OCC(N)=O)C(C)(C)N1`, the LD50 in data set [5] came to 10 mg/kg. Besides, in the data set on Rattus norvegicus [2], the “No. of positive cases” value stood at 1.

In data set [5], `C=CCOc1cccc(CNCCCNC(=O)C2=CC(C)(C)NC2(C)C)c1` showed a median lethal dose (LD50) of 34 mg/kg. In addition, the ED150 with Rattus norvegicus [6] came to 2.7 mg/kg. Besides, in the data set filed under Rattus norvegicus [1], the Relative potency stood at 4.4. Further, the “No. of positive cases” value with Rattus norvegicus [2] turned out to be 7.

The values above are taken from ChEMBL document CHEMBL1123299, “New antiarrhythmic agents. 2,2,5,5-Tetramethyl-3-pyrroline-3-carboxamides and 2,2,5,5-tetramethylpyrrolidine-3-carboxamindes” (J Med Chem, 1986).
